Laboratory results as given in patent publication US11472803B2, “7-substituted 1-aryl-naphthyridine-3-carboxylic acid amides and use thereof” (Bayer Aktiengesellschaft, priority 2016, dated 2022).

What was measured:
human M2 receptor [1] = target: T1, human M2 receptor (Homo sapiens, UniProt P08172); assay: Functional M2-GIRK1/4 activation test: allosteric potency (EC50) and efficiency at EC20 acetylcholine; type: cell-based; conditions: CHO-DUKX-M2-GIRK cells; for EC50: voltage-sensitive dye, acetylcholine at EC20, in some cases mean of two or more determinations; for Emax / Efficiency: boosting of the acetylcholine effect at EC20 acetylcholine concentration
T1 construct: expressed in transfected cells; host or cells: CHO-DUKX (CHO-DUKX-M2-GIRK)
T1 sequence (P08172 1-466): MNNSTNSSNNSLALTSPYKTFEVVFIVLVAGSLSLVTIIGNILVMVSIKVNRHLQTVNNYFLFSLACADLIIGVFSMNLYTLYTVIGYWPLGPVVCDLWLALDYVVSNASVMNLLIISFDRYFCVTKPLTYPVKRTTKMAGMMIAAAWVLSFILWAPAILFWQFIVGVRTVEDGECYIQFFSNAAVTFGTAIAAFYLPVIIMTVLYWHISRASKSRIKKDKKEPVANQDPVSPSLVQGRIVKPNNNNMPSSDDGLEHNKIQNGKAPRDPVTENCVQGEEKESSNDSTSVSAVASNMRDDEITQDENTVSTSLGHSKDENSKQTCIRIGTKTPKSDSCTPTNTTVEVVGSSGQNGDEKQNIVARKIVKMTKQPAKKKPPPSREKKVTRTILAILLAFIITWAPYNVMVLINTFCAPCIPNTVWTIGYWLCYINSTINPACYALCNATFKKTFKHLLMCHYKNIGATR
How it was run: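 Positive allosteric modulation measured as boosting of an EC20 acetylcholine response: hyperpolarization via GIRK1/4 in CHO-DUKX-M2-GIRK cells, monitored by membrane-potential dye fluorescence over 60 s after agonist, compound preadded. Hill-function fit gives EC50 and efficiency.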

human M2 receptor [2] = target: T1, human M2 receptor; assay: Functional M2-GIRK1/4 activation test: positive cooperativity (α factor), shift of acetylcholine dose-response curve; type: cell-based; conditions: Allosteric EC50 shift of acetylcholine 8-point dose-response curve; CHO-DUKX-M2-GIRK cells; α>1 = positive cooperativity
From the text: The binding of orthosteric agonists (endogenous ligand: acetylcholine) to the M2 receptor leads to receptor activation or a change in conformation of the receptor in the manner of a shift in equilibrium in favour of the active receptor conformation.
The agonist-induced change in conformation of the M2 receptor results in a Gαi protein activation. […] Under physiological conditions, the result is then a selective efflux of potassium from the cell along the electrochemical gradient. […] The extent of hyperpolarization can therefore be regarded as a measure of the activation of the M2 receptor.
The test cell used is a recombinant CHO-DUKX cell line which has been stably transfected with cDNA coding for the human M2 receptor and with cDNA coding for both GIRK1/4 subunits (CHO-DUKX-M2-GIRK). The transmembrane potential, or the relative changes in the transmembrane potential as a function of substance addition or M2 activation, is determined by means of a voltage-sensitive dye (FLIPR Membrane Potential Assay Kit Blue, Molecular Devices #R8034) and the measurement of cell fluorescence using a proprietary fluorescence imaging instrument.
In accordance with the desired test concentrations, the substances were pre-diluted in loading buffer (see above).
The sowing medium consisted of MEM alpha medium (supplemented with 5% PCS, 2% Glutamax, no genticin).
For the particular measurement, the medium was removed and the cells were laden with the volt-age-sensitive dye for at least 6 min at room temperature (30 μl of loading buffer per 384-well). This was followed, in a first measurement, by the determination of the resting transmembrane potential for a period of 5 sec in 1 sec increments. Thereafter, 10 μl in each case of the test substances diluted in loading buffer are added, followed by a second measurement to determine the transmembrane potential for a period of 50 sec in 1 sec increments.
Finally, the cells are admixed with 10 μl of agonist solution (acetylcholine dissolved in loading buffer). In contrast to the EC50 determination of the test substances (see B-1.1), however, this is not done using one acetylcholine concentration; instead, every concentration of the test substance is combined with an acetylcholine 8-point dose-response curve. […] The M2-mediated GIRK1/4 activation or hyperpolarization is then monitored in a third measurement over a period of 60 sec in 1 sec increments. The shift in the acetylcholine dose-response curve in the presence of increasing concentrations of the test substance is analysed and quantified by means of GraphPad PRISM (Allosteric EC50 shift). […] Positive cooperativity is the hallmark of a positive allosteric modulator. […] The greater the magnitude of the α value, the greater the extent of cooperativity between orthosteric and allosteric.

Structure (SMILES)	EC50 (human M2 receptor [1]) [nM]	Emax (human M2 receptor [1]) [%]	Cooperativity (alpha factor) (human M2 receptor [2])	Efficiency (human M2 receptor [1]) [%]
CCN(CC(C)O)c1nc2c(cc1F)c(=O)c(C(=O)N[C@@H](C1CC1)C(F)(F)F)cn2-c1c(F)cc(F)cc1F (mixture of isomers) [Example 65, N-[(1S)-1-Cyclopropyl-2,2,2-trifluoroethyl]-7-[ethyl(2-hydroxypropyl)amino]-6-fluoro-4-oxo-1-(2,4,6-trifluorophenyl)-1,4-dihydro-1,8-naphthyridine-3-carboxamide]	30	89	14	–
CC(NC(=O)c1cn(-c2c(F)cc(F)cc2F)c2nc(N3CC(CO)(CO)C3)c(F)cc2c1=O)C(F)(F)C(F)(F)F (racemic) [Example 170, 7-[3,3-Bis(hydroxymethyl)azetidin-1-yl]-6-fluoro-4-oxo-N-[3,3,4,4,4-pentafluorobutan-2-yl]-1-(2,4,6-trifluorophenyl)-1,4-dihydro-1,8-naphthyridine-3-carboxamide]	8.1	–	38	100
CC(NC(=O)c1cn(-c2c(F)cc(F)cc2F)c2nc(N3C[C@@H](O)[C@H](O)C3)c(F)cc2c1=O)C(F)(F)C(F)(F)F (single isomer, unassigned) [Example 9]	–	91	39	–
CC(NC(=O)c1cn(-c2c(F)cc(F)cc2F)c2nc(N3C[C@@H](O)[C@H](O)C3)c(F)cc2c1=O)C(F)(F)C(F)(F)F (single isomer, unassigned) [Example 10]	–	–	70	–
CCC(COC(F)(F)F)NC(=O)c1cn(-c2c(F)cc(F)cc2F)c2nc(N3C[C@@H](O)[C@H](O)C3)c(F)cc2c1=O (single isomer, unassigned) [Example 32]	4.3	–	54	100
CC(NC(=O)c1cn(-c2ncc(F)cc2F)c2nc(N3CC(O)C(O)C3)c(F)cc2c1=O)C(F)(F)C(F)(F)F (single isomer, unassigned) [Example 45]	8.47	100	62	–
CC(NC(=O)c1cn(-c2c(F)cc(F)cc2F)c2nc(N3C[C@@H](O)[C@@H](O)C3)c(F)cc2c1=O)C(F)(F)C(F)(F)F (single isomer, unassigned) [Example 94]	–	100	34	–
CC(NC(=O)c1cn(-c2c(F)cc(F)cc2F)c2nc(N3CCC(O)C(O)C3)c(F)cc2c1=O)C(F)(F)C(F)(F)F (single isomer, unassigned) [Example 182, 7-(3,4-Dihydroxypiperidin-1-yl)-6-fluoro-4-oxo-N-(3,3,4,4,4-pentafluorobutan-2-yl)-1-(2,4,6-trifluorophenyl)-1,4-dihydro-1,8-naphthyridine-3-carboxamide]	8.8	100	27	–
CC(NC(=O)c1cn(-c2c(F)cc(F)cc2F)c2nc(N3CCC[C@@H]3CO)c(F)cc2c1=O)C(F)(F)C(F)(F)F (single isomer, unassigned) [Example 184]	4.5	90	24	–
CC(NC(=O)c1cn(-c2c(F)cc(F)cc2F)c2nc(N3CCCC[C@@H]3CO)c(F)cc2c1=O)C(F)(F)C(F)(F)F (single isomer, unassigned) [Example 185]	6.4	83	13	–
CC(NC(=O)c1cn(-c2c(F)cc(F)cc2F)c2nc(N3CCC(O)(CO)CC3)c(F)cc2c1=O)C(F)(F)C(F)(F)F (single isomer, unassigned) [Example 186, 6-Fluoro-7-[4-hydroxy-4-(hydroxymethyl)piperidin-1-yl]-4-oxo-N-[3,3,4,4,4-pentafluorobutan-2-yl]-1-(2,4,6-trifluorophenyl)-1,4-dihydro-1,8-naphthyridine-3-carboxamide]	5.8	87	20	–

The remaining lines, values ahead:

EC50 (human M2 receptor [1]) [nM]	Emax (human M2 receptor [1]) [%]	Cooperativity (alpha factor) (human M2 receptor [2])	Efficiency (human M2 receptor [1]) [%]	Structure (SMILES)
4.25	100	33	–	CC(NC(=O)c1cn(-c2c(F)cc(F)cc2F)c2nc(N3CC[C@H](O)C3)c(F)cc2c1=O)C(F)(F)C(F)(F)F (mixture of isomers) [Example 112, 6-Fluoro-7-[(3S)-3-hydroxypyrrolidin-1-yl]-4-oxo-N-[3,3,4,4,4-pentafluorobutan-2-yl]-1-(2,4,6-trifluorophenyl)-1,4-dihydro-1,8-naphthyridine-3-carboxamide]
3.8	–	34	99	CC(NC(=O)c1cn(-c2c(F)cc(F)cc2F)c2nc(N3CC(CO)(CO)C3)c(F)cc2c1=O)C(F)(F)C(F)(F)F (racemic) [Example 169, 7-[3,3-Bis(hydroxymethyl)azetidin-1-yl]-6-fluoro-4-oxo-N-[3,3,4,4,4-pentafluorobutan-2-yl]-1-(2,4,6-trifluorophenyl)-1,4-dihydro-1,8-naphthyridine-3-carboxamide]
3.3	–	35	94	CCC(NC(=O)c1cn(-c2c(F)cc(F)cc2F)c2nc(N3CC(CO)(CO)C3)c(F)cc2c1=O)C(F)(F)C(F)(F)F (racemic) [Example 172, 7-[3,3-Bis(hydroxymethyl)azetidin-1-yl]-6-fluoro-4-oxo-N-[1,1,1,2,2-pentafluoropentan-3-yl]-1-(2,4,6-trifluorophenyl)-1,4-dihydro-1,8-naphthyridine-3-carboxamide]
2.5	–	39	99	CCC(NC(=O)c1cn(-c2c(F)cc(F)cc2F)c2nc(N3CC(CO)(CO)C3)c(F)cc2c1=O)C(F)(F)C(F)(F)F (racemic) [Example 173, 7-[3,3-Bis(hydroxymethyl)azetidin-1-yl]-6-fluoro-4-oxo-N-[1,1,1,2,2-pentafluoropentan-3-yl]-1-(2,4,6-trifluorophenyl)-1,4-dihydro-1,8-naphthyridine-3-carboxamide]
4.15	100	37	–	CCC(COC(F)(F)F)NC(=O)c1cn(-c2c(F)cc(F)cc2F)c2nc(N3C[C@@H](O)[C@H](O)C3)c(F)cc2c1=O (single isomer, unassigned) [Example 31]
1.8	–	42	78	CC[C@H](NC(=O)c1cn(-c2c(F)cc(F)cc2Cl)c2nc(N3C[C@@H](O)[C@H](O)C3)c(F)cc2c1=O)C(F)(F)F (single isomer, unassigned) [Example 48]
4.2	–	26	94	O=C(N[C@@H](C1CC1)C(F)(F)F)c1cn(-c2c(F)cc(F)cc2Cl)c2nc(N3CC(CO)(CO)C3)c(F)cc2c1=O (single isomer, unassigned) [Example 71]
2	100	35	–	CC(NC(=O)c1cn(-c2c(F)cc(F)cc2F)c2nc(N3CC[C@H](O)C3)c(F)cc2c1=O)C(F)(F)C(F)(F)F (single isomer, unassigned) [Example 113]
1.5	–	40	94	CC(C)(NC(=O)c1cn(-c2c(F)cc(F)cc2Cl)c2nc(N3C[C@@H](O)[C@H](O)C3)c(F)cc2c1=O)C(F)F (single isomer, unassigned) [Example 143]
